Results as given in patent publication EP2698385A1, “Detection of synthetic cannabinoids” (priority 2012, dated 2014).

What was measured:
Assay type in all cases: binding, sheep
Antibody to Immunogen I = conditions: Cross-reactants at 100 ng/ml; Antibody to Immunogen I
How it was run: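 Sheep anti-Immunogen I IgG coated on plates, then JWH-018 standards (0–40 ng/ml) competed with hapten-HRP conjugate for 1 h at 25°C. TMB read-out at 450 nm, 4-parameter fit. IC50 is the standard concentration giving 50% B/B0; cross-reactivity of related cannabinoids taken from the calibration curves.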

Antibody to Immunogen II = experiment: Competitive ELISA (Example 36), antibody RS1833B12, tracer ESC4555/LK959, standard JWH-018; conditions: Cross-reactants at 100 ng/ml; Antibody to Immunogen II
Procedure: An aqueous solution of each immunogen was formulated with Freund's Complete Adjuvant (FCA) to form an emulsion consisting of 2mg/ml* immunogen in 50% (v/v) FCA. Three sheep were immunised with this emulsion (1° immunisation), 0.25ml being intramuscularly injected at each of four sites in the flank of each animal. Subsequent immunizations (boosts) contained 1mg/ml* immunogen. All boosts were emulsified in 50% (v/v) Freund's Incomplete Adjuvant (FIA) and were administered in the same manner as the 1° immunisation, at monthly intervals. Blood sampling took place 7 to 14 days after each boost. *The general procedure for immunogen administration is outlined above, however, it was necessary to deviate from this protocol in some cases, due to reduced immunogen concentrations (Immunogens II, IV, VII and VIII) and/or amount available (Immunogen VIII). Any deviations from the protocol described are outlined in Table 1A below and highlighted in bold. Table 1A: Amount and volume of immunogens administered for primary and subsequent boosts
The appropriate antibody coating dilution was determined using standard ELISA checkerboard techniques. The plate was incubated overnight at 4°C, washed 4 times over 10 minutes with Tris buffered saline containing Tween 20 (TBST) and tapped dry. […] 75µl of conjugate (appropriate hapten-HRP) diluted in Tris buffer (pH 7.2) containing EDTA, D-mannitol, sucrose, thimerosal and BSA, was added to each of the wells. The appropriate dilution of conjugate was also determined using standard ELISA checkerboard techniques. The plate was incubated at 25°C for 1 hour. Excess unbound conjugate was removed by washing 6 times over a 10 minute period with TBST. 125µl of tetramethylbenzidine (TMB) substrate solution was added to each well of the plate that was then incubated for 20 minutes in the dark at room temperature. The reaction was terminated by addition of 125µl 0.2M H2SO4 to each well. The absorbance was then measured at 450nm using a microtiter plate reader. The data are inputted to a computer program called 'KC Junior'. It is a 4 parameter fit curve and allow the calculatation of concentrations between the standard runs.
In a similar manner to that described above, the wells of a 96-well microtiter plate were coated with the IgG fraction of the antiserum raised to Immunogens I or II.
The data set our in Tables 3 and 4 are generated using antibodies raised against the indicated Immunogens in a competitive binding assay with the indicated tracers, using the indicated standards: Table 2
Using the calibration curves generated and employing a single level of cross reactants, these were used to determine the cross-reactivity of each immunoassay with these substances. These are the standards used for the IC50 and cross-reactivity data generation • Immunogen I - JWH-018 • Immunogen II - JWH-018 • Immunogen IV - JWH-018 • Immunogen VII - JWH-015 • Immunogen VIII - JWH-018 Table 4: Cross reactivity of the competitive ELISAs for synthetic cannabinoids and their metabolites

[1] = tested on: Antibody to Immunogen VII; conditions: Cross-reactants at 100 ng/ml; Antibody to Immunogen VII
[2] = tested on: Antibody to Immunogen VIII; conditions: Cross-reactants at 100 ng/ml; Antibody to Immunogen VIII
Antibody to Immunogen IV = conditions: Cross-reactants at 100 ng/ml; Antibody to Immunogen IV

Compound | %B/B0 (Antibody to Immunogen I) [%] | %B/B0 (Antibody to Immunogen II) [%] | %B/B0 [1] [%] | %B/B0 [2] [%] | %B/B0 (Antibody to Immunogen IV) [%]
O=C(c1cccc2ccccc12)c1cn(CCCCO)c2ccccc12 [JWH-073 N-(4-hydroxybutyl) metabolite] | 3.22 | 60.01 | 48.81 | 57.99 | 52.61
O=C(O)CCCn1cc(C(=O)c2cccc3ccccc23)c2ccccc21 [JWH-073 N-butanoic acid metabolite] | 6.88 | 92.20 | 60.01 | 94.98 | 98.95
CCCCCn1cc(C(=O)c2cccc3c(OC)cccc23)c2ccccc21 [JWH-081 5-methoxynaphthyl isomer] | 18.51 | 60.90 | 94.16 | 26.56 | 6.24
Cc1ccc(C(=O)c2cn(CCCCCO)c3ccccc23)c2ccccc12 [JWH-122 N-(5-hydroxypentyl) metabolite] | 42.80 | 71.76 | 83.65 | 48.67 | 25.72
CCCCCn1cc(C(=O)c2ccc(C)c3ccccc23)c2ccccc21 [JWH-122] | 62.98 | 44.55 | 89.37 | 14.43 | 3.94
O=C(c1cccc2ccccc12)c1cn(CCN2CCOCC2)c2cccc(O)c12 [JWH-200 4-hydroxyindole metabolite] | 44.97 | 78.17 | 91.15 | 91.82 | 87.88
O=C(c1cccc2ccccc12)c1cn(CCN2CCOCC2)c2ccc(O)cc12 [JWH-200 5-hydroxyindole metabolite] | 12.61 | 64.99 | 82.42 | 90.88 | 97.53
O=C(c1cccc2ccccc12)c1cn(CCN2CCOCC2)c2cc(O)ccc12 [JWH-200 6-hydroxyindole metabolite] | 7.27 | 61.65 | 65.52 | 83.20 | 94.41
CCCCCn1cc(C(=O)c2cccc3c(Cl)cccc23)c2ccccc21 [JWH-398 5-chloronaphthyl isomer] | 35.53 | 23.50 | 91.33 | 19.67 | 7.06
O=C(c1ccc(Cl)c2ccccc12)c1cn(CCCCCO)c2ccccc12 [JWH-398 N-(5-hydroxypentyl) metabolite] | 48.07 | 67.49 | 82.97 | 51.33 | 22.01
CCCCCn1cc(C(=O)c2ccccc2OC)c2ccccc21 [RCS-4 2-methoxy isomer] | 29.14 | 42.74 | 87.27 | 29.32 | 15.28
